pIC50: −log10 of the molar value. Counter-ions that a name gives are not always drawn. Like-named read-outs stand apart in the source and are kept apart here.
Tests used:
[1] = mouse, in vivo
Text: The acute toxicity of these compounds is quite low. […]. The aliphatic side-chains of these aliphatic propargyl compounds are similar to those that exist in endogenous lipids and fatty acids and such aliphatic chains are readily oxidized in vivo. […]

MAO-A [2] = biological target: T1, MAO-A (Mus musculus, UniProt Q64133); type: in vivo
T1 construct: MAO activities in the mouse brain after; from tissue
T1 sequence (Q64133 1-526): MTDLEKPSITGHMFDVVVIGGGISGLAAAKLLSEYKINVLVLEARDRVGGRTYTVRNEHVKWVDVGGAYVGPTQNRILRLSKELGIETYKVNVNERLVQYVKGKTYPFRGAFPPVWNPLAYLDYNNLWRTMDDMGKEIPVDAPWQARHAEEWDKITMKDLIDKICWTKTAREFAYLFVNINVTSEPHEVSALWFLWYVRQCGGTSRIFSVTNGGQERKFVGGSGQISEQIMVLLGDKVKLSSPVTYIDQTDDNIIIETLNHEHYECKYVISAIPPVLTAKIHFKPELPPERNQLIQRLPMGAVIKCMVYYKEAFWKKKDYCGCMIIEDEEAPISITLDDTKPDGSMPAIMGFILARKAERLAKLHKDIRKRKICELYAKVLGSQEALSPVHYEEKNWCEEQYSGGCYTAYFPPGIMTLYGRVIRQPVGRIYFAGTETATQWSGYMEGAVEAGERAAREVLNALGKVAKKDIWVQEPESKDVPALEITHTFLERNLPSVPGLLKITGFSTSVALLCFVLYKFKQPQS
Procedure: (§1) Table 3 indicates the MAO activities in the mouse brain following oral administration of the aliphatic propargylamines.
(§2) of each compound. Striata were dissected from the brain two hours after
(§3) the administration of the drugs. MAOA and MAOB activities were determined

MAO-A [3] = biological target: T2, MAO-A (Rattus norvegicus, UniProt P21396); test: biochemical; type: biochemical
T2 sequence (P21396 1-526): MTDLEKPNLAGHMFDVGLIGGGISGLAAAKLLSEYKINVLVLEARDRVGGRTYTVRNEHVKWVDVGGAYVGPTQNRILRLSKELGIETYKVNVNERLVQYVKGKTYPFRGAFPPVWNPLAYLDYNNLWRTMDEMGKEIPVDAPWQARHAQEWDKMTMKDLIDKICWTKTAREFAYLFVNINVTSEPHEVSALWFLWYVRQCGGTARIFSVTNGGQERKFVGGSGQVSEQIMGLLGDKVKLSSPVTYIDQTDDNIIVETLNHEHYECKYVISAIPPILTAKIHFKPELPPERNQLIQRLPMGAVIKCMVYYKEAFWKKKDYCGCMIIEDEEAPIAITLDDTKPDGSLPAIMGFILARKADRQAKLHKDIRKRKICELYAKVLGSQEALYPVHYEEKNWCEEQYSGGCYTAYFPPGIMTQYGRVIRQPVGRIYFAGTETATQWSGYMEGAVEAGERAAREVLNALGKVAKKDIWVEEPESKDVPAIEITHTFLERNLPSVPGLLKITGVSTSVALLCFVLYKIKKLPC
Procedure: (§4) The aliphatic propargylamine inhibitors (from 1×10^-10 M to 1×10^-4 M) were preincubated with the MAO for 20 min. at ambient room temperature and then the residual enzyme activities were determined by addition of the substrates, followed by further incubation at 37° C. for 30 min. The enzymatic reactions were terminated by the addition of citric acid and the aldehyde products were extracted with toluene: ethyl acetate (1:1, v/v) and the radio-activities assessed in a scintillation counter.

MAO-B [4] = biological target: T3, MAO-B (Rattus norvegicus, UniProt P19643); test: biochemical; type: biochemical
T3 sequence (P19643 1-520): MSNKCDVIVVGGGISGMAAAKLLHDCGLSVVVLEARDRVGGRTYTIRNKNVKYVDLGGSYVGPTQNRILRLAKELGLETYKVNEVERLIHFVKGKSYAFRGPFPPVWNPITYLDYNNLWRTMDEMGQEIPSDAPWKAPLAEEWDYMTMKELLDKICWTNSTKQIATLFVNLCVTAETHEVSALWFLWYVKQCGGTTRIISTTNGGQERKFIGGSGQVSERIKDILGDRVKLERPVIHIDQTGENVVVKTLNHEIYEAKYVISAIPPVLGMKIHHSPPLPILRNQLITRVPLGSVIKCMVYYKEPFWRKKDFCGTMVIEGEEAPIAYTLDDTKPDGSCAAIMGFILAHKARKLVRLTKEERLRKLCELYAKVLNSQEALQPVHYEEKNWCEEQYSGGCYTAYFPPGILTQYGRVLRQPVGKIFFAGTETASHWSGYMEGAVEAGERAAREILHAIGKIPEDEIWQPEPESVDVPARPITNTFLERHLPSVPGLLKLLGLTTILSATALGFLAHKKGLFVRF
Procedure: as §4

monoamine oxidase = test: Inhibition of rat liver monoamine oxidase deamination of dopamine (DA, mixed-type MAO A and B substrate) in vitro; type: biochemical; settings: substrate DA (5 × 10^-4 M), average of at least 3 independent experiments
Procedure: as §4

MAO-B [5] = biological target: T4, MAO-B (Mus musculus, UniProt Q8BW75); test: MAO-B activity in the mouse brain after oral administration (substrate PE); type: in vivo; settings: for Relative activity PE: oral 10 mg/Kg, PE (1.9 × 10^-5 M), mean ± standard error, saline = 100; for Relative activity PE / ED50: 2 hours; for ED50: average of 5 animals per dose, estimated from dose response curves, read-out: Inhibition of MAO-B activity, dose response (ID50)
T4 construct: MAO activities in the mouse brain after; from tissue
T4 sequence (Q8BW75 1-520): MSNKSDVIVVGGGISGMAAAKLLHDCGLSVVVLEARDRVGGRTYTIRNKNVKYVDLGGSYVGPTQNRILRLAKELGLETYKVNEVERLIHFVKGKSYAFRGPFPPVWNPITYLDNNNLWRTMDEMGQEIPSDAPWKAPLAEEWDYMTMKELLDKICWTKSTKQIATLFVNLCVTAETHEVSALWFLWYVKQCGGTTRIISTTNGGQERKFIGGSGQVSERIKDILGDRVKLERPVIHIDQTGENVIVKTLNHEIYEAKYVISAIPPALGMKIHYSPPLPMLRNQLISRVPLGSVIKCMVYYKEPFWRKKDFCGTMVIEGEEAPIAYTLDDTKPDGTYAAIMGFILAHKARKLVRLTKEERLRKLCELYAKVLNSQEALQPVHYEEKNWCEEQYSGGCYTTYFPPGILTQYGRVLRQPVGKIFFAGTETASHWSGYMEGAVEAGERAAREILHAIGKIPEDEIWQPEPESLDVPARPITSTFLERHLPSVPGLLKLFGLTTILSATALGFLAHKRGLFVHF
Procedure: as §1, §2, §3
Striata were dissected from the brain two
hours after oral administration of the drugs. MAOB activities were then
determined immediately. The values were estimated from doseresponse

MAO-A [6] = biological target: T1, MAO-A; test: in vivo; settings: ip, read-out: 5-HT ID50
Procedure: (§5) Albino Swiss mice were used in this study. The animals were injected intraperitoneally with different doses of the aliphatic propargylamines in 100 μL saline.
(§6) 0.5, 1, 2, 5, 10, 20, 50, 100 mg/Kg. Striata were dissected from the brai
(§7) two hours after i.p. administration of the drugs. MAOA and MAOB activitie
(§8) were determined immediately. The values were estimated from doseresponse

MAO-B [7] = biological target: T4, MAO-B; test: in vivo; type: in vivo; settings: for Ratio MAO-A/MAO-B: 120 min; for ED50: read-out: PE ID50
Procedure: as §5, §6, §7, §8

noradrenaline neurons = test: Protection of noradrenaline neurons against DSP-4 induced neurotoxicity in the mouse brain; type: in vivo; settings: Experiment II, pretreatment 10 mg/Kg i.p., mean ± S.E.
Procedure: The analyses of DSP-4-induced neurotoxic effects were conducted in accordance with […] and Jonsson (Eur. J. Pharmacol. 103 (1984), 269-278), hereby incorporated by reference. Mice were pretreated with M-2-PP (10 mg/Kg) and 2-HxMP (10 mg/Kg) or saline as control via i.p. administration and one hour later challenged with a single i.p. dose of DSP-4 (DSP-4: […] One week after treatment noradrenaline content in the putamen of these mice was analyzed. The results which are shown in Table 5 are mean ± S.E. of five animals in each group.

Solubility in water = settings: free base
dopamine neurons = test: Protection of dopamine neurons against MPTP-induced neurotoxicity in the mice brain; type: in vivo, mouse
Text: Three days later, dopamine levels and dopamine uptake site densities (GBR bindings) were estimated.

[8] = rat, liver mitochondrial membranes
[9] = substrate 5-HT (5 × 10^-4 M), rat liver MAO, in vitro, average of at least 3 independent experiments
[10] = 2 hours after administration, 5-HT 5 × 10^-4 M, estimated from dose response curves
[11] = ID50 i.p. in mice versus IC50 in vitro
[12] = mouse, ip, 2 hours after administration, […], estimated from dose response curves

| Structure (SMILES) | fatality after oral administration [1] | Relative activity 5-HT (MAO-A [2]; mouse, in vivo, po, 10 mg/kg) | Ratio MAO-A/MAO-B (MAO-B [4]; [8]) | Relative activity PE (MAO-B [5]) [%] | ED50 (MAO-A [6]; 2 h) [mg/kg] | MAO-B ID50 (mg/Kg) / IC50 (1 × 10^-6 M) (MAO-B [7]; mouse, in vivo, ip) | Ratio MAO-A/MAO-B (MAO-B [7]; mouse, in vivo, ip) | ED50 (MAO-B [7]; mouse, ip, 2 h) [mg/kg] | pIC50 (MAO-A [3]; [9]) | Ratio MAO-A/MAO-B (MAO-B [4]; ratio of IC50 values, in vitro) | pIC50 (MAO-B [4]; read-out: PE IC50) | ED50 (MAO-B [5]; mouse, oral) [mg/kg] | ED50 (MAO-A [6]; [10]) [mg/kg] | MAO-B ID50 (mg/Kg) / IC50 (1 × 10^-6 M) (MAO-B [7]; [11]) | ED50 (MAO-B [7]; [12]) [mg/kg] | Ratio MAO-A/MAO-B (MAO-B [7]; ratio of ID50 values, i.p.) | also measured |
| --- | --- | --- | --- | --- | --- | --- | --- | --- | --- | --- | --- | --- | --- | --- | --- | --- | --- |
| C#CCN(C)C(C)CC.Cl.O=C(O)C(=O)O (racemic) [Example 2-BuMP, N-(2-Butyl)-N-methylpropargylamine hydrochloride and oxalate] | no fatality | – | – | – | – | – | – | – | – | – | – | – | – | – | – | – | – |
| C#CCN(C)C(C)CCCCCCCCCC.Cl (centres unmarked) [Example 2-DdMP, N-(2-dodecyl)-N-methylpropargylamine-HCl] | – | 107 ± 14 | 50 | 64 ± 8 | 60 | 100 | 15 | 4 | – | – | – | – | – | – | – | – | pIC50 (MAO-A [3]; read-out: 5-HT IC50): 5.70; pIC50 (MAO-B [4]; substrate PE (1.9 × 10^-5 M), rat liver MAO, in vitro, average of at least 3 independent experiments): 7.40; pIC50 (monoamine oxidase): 6.52; effectiveness in blocking MAO-B activity in vivo after acute oral administration (in words) (MAO-B [5]; mouse, oral): less potent at inhibiting MAO-B activity in vivo after acute administration |
| C#CCN(C)C(C)CCCC.Cl (centres unmarked) [Example 2-HxMP, N-(2-Hexyl)-N-methylpropargylamine hydrochloride] | – | – | – | – | – | – | – | – | 4.00 | 1000 | 7.00 | 1 | 40 | 2 (mg/Kg)/(1 × 10^-6 M) | 0.2 | 200 | Noradrenaline in putamen (noradrenaline neurons; DSP-4 50 mg/Kg, p < 0.01 vs DSP-4 (DSP-4 alone 56)): 84 ± 0.04%; Noradrenaline in putamen (noradrenaline neurons; saline, no DSP-4): 104 ± 0.05% |
| C#CCNC [MP, N-Methylpropargylamine-HCl] | – | – | – | – | – | – | – | – | – | – | – | – | – | – | – | – | solubility in water (Solubility in water): infinite; 5-HT IC50 (MAO-A [3]; [9]): inactive; PE IC50 (MAO-B [4]): inactive; DA IC50 (monoamine oxidase): inactive |
| C#CCN(C)CCCCC.O=C(O)C(=O)O [Example M-1-PP, N-(1-Pentyl)-N-methylpropargylamine oxalate] | no fatality | 97 ± 13 | 200 | 72 ± 17 | 100 | 6.6 | 50 | 2 | 4.00 | – | 6.40 | – | – | – | – | – | Dopamine (dopamine neurons; 2.0 mg/Kg + MPTP): 3.1 μg/gm; Dopamine binding site (dopamine neurons; 2.0 mg/Kg + MPTP): 221 pmol/mg; Dopamine (dopamine neurons; 10 mg/Kg + MPTP): 9.0 μg/gm; Dopamine binding site (dopamine neurons; 10 mg/Kg + MPTP): 320 pmol/mg; inhibition of brain MAO-B activity in vivo (in words) (MAO-B [7]; mouse, in vivo, ip): more potent than the longer chain analogs at inhibiting brain MAO-B activity |
| C#CCN(C)CCCC.Cl [Example 1-BuMP, N-(1-Butyl)-N-methylpropargylamine hydrochloride] | no fatality | – | – | 67 ± 9 | – | – | – | – | 4.00 | 100 | 6.00 | 15 | 100 | 2 (mg/Kg)/(1 × 10^-6 M) | 2 | 50 | Relative activity 5-HT (MAO-A [2]; oral 10 mg/Kg, 2 hours, 5-HT (5 × 10^-4 M), mean ± standard error, saline = 100): 98 ± 5%; inhibition of brain MAO-B activity in vivo (in words) (MAO-B [7]; mouse, i.p., two hours after treatment): more potent than the longer chain analogs at inhibiting brain MAO-B activity |
